Reference: patent US11850252B2, “Use of nor-ursodeoxycholic acid for reducing liver fat” (Dr. Falk Pharma GmbH, priority 2017, dated 2023)
“And” between values parts separate entries of the source, which are not always exact repeats. Equal values may be shown once.

Tests used:
Format in all cases: in vivo, human
[1] = tested on: Patients with a clinical diagnosis of non-alcoholic hepatic steatosis; test: Ultrasound examination of the liver (steatosis hepatis grade), phase II clinical trial
Experimental: (§1) A double-blinded, randomized, placebo-controlled phase II clinical trial was conducted as described in the following.
(§2) Patients with a clinical diagnosis of non-alcoholic hepatic steatosis were randomized to a 12-week treatment period and a 4-week follow-up. Patients were divided into three groups. The first groups received 1,500 mg Nor-UDCA per day (6 capsules with 250 mg Nor-UDCA in each capsule). The second group received 500 mg Nor-UDCA per day (2 capsules with 250 mg Nor-UDCA in each capsule and 4 capsules with 250 mg placebo in each capsule). The third group received 6 capsules with 250 mg placebo in each capsule.
The ultrasound examination was performed at V1 or within 4 weeks before and 1 week after V1 and at V6.
The liver was scored by the most affected area.

[2] = tested on: Patients with a clinical diagnosis of non-alcoholic hepatic steatosis; test: Liver stiffness according to Fibroscan or ARFI, phase II clinical trial
Experimental: as §1, §2
A) If available, Fibroscan examinations were performed at V1 or within 4 weeks before and 1 week after V1 and at V6. For the purpose of this measurement, patients should be fasting.
Fibroscan is a non-invasive device (Echosens, France) for the detection steatosis hepatis by vibration-controlled transient elastography. It consists of a vibrator device coupled to an ultrasound system. The signal from this device allows a calculation of stiffness of scanned tissue, and thereby an assessment of the extent of disease. Results of liver elasticity are to be expressed by stiffness (kPa) and success rate (%).
During measurement, an ultrafast pulse echosequence is emitted (pulse repetition frequency of 6 kHz) during the propagation of the controlled shear wave. The acquisition lasts only 80 ms and strains induced in the liver by the propagation of the shear wave is measured using standard autocorrelation approach between successive ultrasound lines. Stiffness values were obtained in kPA.
Liver stiffness was measured using either of two probes (M-probe or XL-probe) and documented with the following respective thresholds for different stages:
Stage 0/1 (i.e. <stage 2): <7.0 kPa (threshold)
Stage 0/1 (i.e. <stage 2): <6.2 kPa (threshold)
B) If available, Acoustic radiation force impulse imaging (ARFI) examinations were performed at V1 or within 4 weeks before and 1 week after V1 and at V6. ARFI measurements were documented with the following thresholds for different stages:
Stage 0/1 (i.e. <stage 2): <1.34 m/s (threshold)

[3] = tested on: Patients with a clinical diagnosis of non-alcoholic hepatic steatosis; test: Hepatic fat fraction measured by MRI and/or MRS, phase II clinical trial
Experimental: as §1, §2
If available, magnetic resonance imaging/spectroscopy (MRI/MRS) examinations were performed at V1 or within 4 weeks before and 1 week after V1 and at V6. Both, MRI and MRS are MR-based methods to separate the liver signal into its water and fat components. The resonance frequencies corresponding to protons in water and to the dominant protons in fat are distinct, and can be quantified directly from the spectral tracing.
The following equation was to be used to calculate the hepatic fat fraction derived from chemical shift imaging (CSI) data: CSI hepatic fat fractionunoorrected=SIin phase−SIopposed phase/2×SIin phase
To account for signal intensity differences not dependent of the fat content, a region of interest was also placed in the spleen in the same image as the liver measurements were performed. To calculate the signal-intensity corrected (using the spleen measurements) hepatic fat fraction, the equation above will be adopted as follows: CSI hepatic fat fractionspleen correction=(SIin phase liver/SIspleen)−(SIopposed phase liver/SIspleen)/2×(SIin phase liver/SIspleen)
If the calculations lead to negative mean hepatic fat fraction values, these negative values were considered as a fat fraction of 0, because a negative value is not possible.
MRS were performed at 1.5 or 3.0 Tesla to determine hepatic triglyceride content (in %).

[4] = tested on: Patients with a clinical diagnosis of non-alcoholic hepatic steatosis; test: Cytokeratin 18 (M30, M65 fragments) in the course of the study; conditions: for mean value of Cytokeratin 18 (M30 fragment) / mean value of Cytokeratin 18 (M65 fragment): V2 baseline
Source text: In another embodiment, the patient to be treated has a serum level of cytokeratin 18 (M65) of less than 750 U/ml, or less than 600 U/ml, or less than 500 U/ml, or less than 400 U/ml, or less than 300 U/ml or even less than 250 U/ml. The level of the M65 fragment of cytokeratin-18 can be determined by known methods, e.g. by an enzyme-linked immunosorbent assay (ELISA)
In another embodiment, the patient to be treated has a serum level of cytokeratin 18 (M30) of less than 500 U/ml, or less than 400 U/ml, or less than 300 U/ml, or less than 200 U/ml, or less than 150 U/ml. The level of the M30 fragment of cytokeratin-18 can be determined by known methods, e.g. by an ELISA.
as §1, §2

[5] = N500 (500 mg Nor-UDCA per day), V1 screening
[6] = N500 (500 mg Nor-UDCA per day), V6 week 12
[7] = N1500 (1,500 mg Nor-UDCA per day), V1 screening
[8] = N1500 (1,500 mg Nor-UDCA per day), V6 week 12
[9] = N500 (500 mg Nor-UDCA per day), V6-LOCF week 12
[10] = N1500 (1,500 mg Nor-UDCA per day), V6-LOCF week 12

CC(CC(=O)O)[C@H]1CCC2[C@H]3C(CC[C@@]21C)[C@@]1(C)CCC(O)C[C@H]1C[C@@H]3O (stereo partly shown) [Nor-UDCA, 24-nor-ursodeoxycholic acid]
Number (%) of patients, steatosis hepatis grade Mild steatosis (S1) [1, 5]: 21.2% | Number (%) of patients, steatosis hepatis grade Moderate steatosis (S2) [1, 5]: 45.5% | Number (%) of patients, steatosis hepatis grade No/minimal steatosis (S0) [1, 5]: 6.1% | Number (%) of patients, steatosis hepatis grade Severe steatosis (S3) [1, 5]: 27.3% | Number (%) of patients, steatosis hepatis grade Mild steatosis (S1) [1, 6]: 28.8% | Number (%) of patients, steatosis hepatis grade Moderate steatosis (S2) [1, 6]: 51.5% | Number (%) of patients, steatosis hepatis grade No/minimal steatosis (S0) [1, 6]: 3.0% | Number (%) of patients, steatosis hepatis grade Severe steatosis (S3) [1, 6]: 16.7% | Number (%) of patients, steatosis hepatis grade Mild steatosis (S1) [1, 7]: 26.6% | Number (%) of patients, steatosis hepatis grade Moderate steatosis (S2) [1, 7]: 53.1% | Number (%) of patients, steatosis hepatis grade No/minimal steatosis (S0) [1, 7]: 0.0% | Number (%) of patients, steatosis hepatis grade Severe steatosis (S3) [1, 7]: 20.3% | Number (%) of patients, steatosis hepatis grade Mild steatosis (S1) [1, 8]: 26.6% | Number (%) of patients, steatosis hepatis grade Moderate steatosis (S2) [1, 8]: 62.5% | Number (%) of patients, steatosis hepatis grade No/minimal steatosis (S0) [1, 8]: 0.0% | Number (%) of patients, steatosis hepatis grade Severe steatosis (S3) [1, 8]: 10.9% | Number (%) of patients, liver stiffness Stage 0/1 [2, 5]: 62.5% | Number (%) of patients, liver stiffness Stage = 4 [2, 5]: 12.5% | Number (%) of patients, liver stiffness Stage ≥2 [2, 5]: 14.6% | Number (%) of patients, liver stiffness Stage ≥3 [2, 5]: 10.4% | Number (%) of patients, liver stiffness Stage 0/1 [2, 9]: 58.3% | Number (%) of patients, liver stiffness Stage = 4 [2, 9]: 10.4% | Number (%) of patients, liver stiffness Stage ≥2 [2, 9]: 22.9% | Number (%) of patients, liver stiffness Stage ≥3 [2, 9]: 8.3% | Number (%) of patients, liver stiffness Stage 0/1 [2, 7]: 55.6% | Number (%) of patients, liver stiffness Stage = 4 [2, 7]: 19.4% | Number (%) of patients, liver stiffness Stage ≥2 [2, 7]: 17.6% | Number (%) of patients, liver stiffness Stage ≥3 [2, 7]: 8.3% | Number (%) of patients, liver stiffness Stage 0/1 [2, 10]: 67.5% | Number (%) of patients, liver stiffness Stage = 4 [2, 10]: 15.0% | Number (%) of patients, liver stiffness Stage ≥2 [2, 10]: 12.5% | Number (%) of patients, liver stiffness Stage ≥3 [2, 10]: 5.0% | percentage of patients with stage 0/1 liver stiffness, change in the course of the study ([2]; group receiving 500 mg Nor-UDCA): decreased | Hepatic fat fraction measured by MRI and/or MRS, Mean ± SD [3, 5]: 14.6 ± 14.5% | Hepatic fat fraction measured by MRI and/or MRS, Mean ± SD [3, 9]: 15.5 ± 13.5% | Hepatic fat fraction measured by MRI and/or MRS, Mean ± SD [3, 7]: 21.3% and 21.3 ± 15.4% | Hepatic fat fraction measured by MRI and/or MRS, Mean ± SD [3, 10]: 16.3% and 16.3 ± 14.4% | decrease in the hepatic fat fraction ([3]; group receiving 500 mg): no substantial decrease | change of mean Cytokeratin 18 (M30 fragment) during the study ([4]; N500 (500 mg/day)): −34.4 U/I | change of mean Cytokeratin 18 (M65 fragment) during the study ([4]; N500 (500 mg/day)): −106.0 U/I | mean value of Cytokeratin 18 (M30 fragment) ([4]; N500 (500 mg/day)): 389.4 U/I | mean value of Cytokeratin 18 (M65 fragment) ([4]; N500 (500 mg/day)): 590.2 U/I | change of mean Cytokeratin 18 (M30 fragment) during the study ([4]; N1500 (1,500 mg/day)): −30.3 U/I | change of mean Cytokeratin 18 (M65 fragment) during the study ([4]; N1500 (1,500 mg/day)): −80.6 U/I | mean value of Cytokeratin 18 (M30 fragment) ([4]; N1500 (1,500 mg/day)): 333.7 U/I | mean value of Cytokeratin 18 (M65 fragment) ([4]; N1500 (1,500 mg/day)): 519.9 U/I
